{"source": "patent EP4796536A1", "about": "“CRYSTAL FORMS OF COMPOUND HAVING FUSED FIVE- AND SIX-MEMBERED RINGS, PREPARATION METHOD THEREFOR, AND USE THEREOF” (Hangzhou Polymed Biopharmaceuticals, Inc., priority 2023, dated 2025)", "key": {"[1]": {"target": "T1, IRAK4 kinase (Homo sapiens, UniProt Q9NWZ3)", "T1 construct": "purchased Carna 09-145", "T1 sequence (Q9NWZ3 1-460)": "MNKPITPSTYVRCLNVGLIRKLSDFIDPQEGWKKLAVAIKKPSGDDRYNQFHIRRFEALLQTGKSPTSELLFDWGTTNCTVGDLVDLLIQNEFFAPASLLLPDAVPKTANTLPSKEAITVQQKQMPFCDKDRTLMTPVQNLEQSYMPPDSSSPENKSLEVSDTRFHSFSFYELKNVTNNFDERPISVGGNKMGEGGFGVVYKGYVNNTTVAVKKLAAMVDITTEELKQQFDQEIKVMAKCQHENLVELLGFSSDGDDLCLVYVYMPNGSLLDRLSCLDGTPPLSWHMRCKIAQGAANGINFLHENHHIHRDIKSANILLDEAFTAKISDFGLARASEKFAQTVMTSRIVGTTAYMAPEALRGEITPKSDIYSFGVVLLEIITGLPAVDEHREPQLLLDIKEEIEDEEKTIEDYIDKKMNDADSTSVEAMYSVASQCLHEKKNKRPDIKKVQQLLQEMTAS", "experiment": "Inhibition of IRAK4 kinase activity, fluorescence microfluidic mobility assay", "format": "biochemical", "conditions": "IRAK4 6 nM, ATP 10 µM, substrate peptide FAM-P8 3 µM", "method": "Based on the experimental method of fluorescence microfluidic mobility assay, the IC50 value of competitive binding of IRAK4 kinase to ATP by the compound was determined. The initial detection concentration of the compound was 10 µM, which was 4-fold serially diluted to […] and assayed in duplicate. In this case, commercially available staurosporine was the standard control for the assay.\n• 1) IRAK4 kinase was dissolved in kinase buffer (50 mM HEPES pH 7.5, 10 mM MgCl2, 2 mM DTT, and 0.01% Brij-35) at a final concentration of 6 nM. • 2) The substrate peptide FAM-P8 and ATP were dissolved in the above kinase buffer, and the final concentrations of the substrate peptide FAM-P8 and ATP for IRAK4 were 3 µM and 10 µM, respectively. • 3) Dilution of compound: the compound was first diluted to 50 µM, and then 4-fold serially diluted with DMSO. […] After incubation at 28°C for 1 hour, 25 µL of stop solution (100 mM HEPES pH 7.5, 50 mM EDTA, 0.2% Coating Reagent #3, and 0.015% Brij-35) was added to each well to terminate the reaction. • 5) Data reading: CaliperEZ Reader II instrument was used to read the conversion rate data. […]"}, "[2]": {"target": "T2, IRAK4 protein in THP-1 cells (Homo sapiens, UniProt Q9NWZ3)", "T2 construct": "endogenous in cells; host or cells: THP-1", "T2 sequence (Q9NWZ3 1-460)": "T1 sequence (Q9NWZ3 1-460)", "experiment": "IRAK4 protein degradation in THP-1 cells by Western Blot", "format": "cell-based", "conditions": "24 hours after administration", "method": "2.2.2.1 Based on the experimental method of immunoblot, i.e., Western Blot, THP-1 cell samples processed by gel electrophoresis were stained with specific antibodies, and the degrading activity of the compound on the IRAK4 protein in THP-1 cells was determined by analyzing the position and depth of staining. The detection concentrations of the compound were 0 µM, 0.3 µM, 1 µM, and 3 µM, and the compound was used to treat the cells for 8 hours, 16 hours, 24 hours, and 48 hours. In this case, glyceraldehyde-3-phosphate dehydrogenase (GAPDH) was the internal reference protein for the assay.\n• Running buffer: 50 mL of MOPS SDS Running Buffer (20X) and 50 mL of 20× TBS Tween-20 buffer were diluted to 1L with deionized water as running buffer; • 5% skim milk (w/v): 5% skim milk was prepared by diluting 2.5 g of skim milk with 50 mL of 1× TBS Tween-20 buffer; • 5% BSA (w/v): 5% BSA was prepared by diluting 2.5 g of BSA with 50 mL of 1× TBS Tween-20 buffer; • Anti-IRAK4 antibody was diluted at 1:1000 with 5% BSA into a primary antibody working solution; • Goat Anti-Rabbit IgG H&L (HRP) was diluted at 1:2000 with 5% BSA into a secondary antibody working solution; • Goat Anti-Mouse IgG H&L (HRP) was diluted at 1:2000 with 5% BSA into a secondary antibody working solution. […]"}}}
{"smiles": "COc1cc2nn(C3CC4(CCN(C(=O)C5CCN(c6ccc7c(c6)C(=O)N(C6CCC(=O)NC6=O)C7=O)CC5)CC4)C3)cc2cc1NC(=O)c1cccc(C(F)(F)F)n1", "note": "(centres unmarked) [X]", "values": [{"measurement": "IC50", "setting": "[1]", "value": 26, "unit": "nM"}, {"measurement": "DC50", "setting": "[2]", "value": 4.02, "unit": "nM"}]}
